Assay results taken from patent US20230365899A1, “COMPOSITIONS COMPRISING BLEACHING CATALYST, MANUFACTURING PROCESS THEREOF, AND BLEACHING AND CLEANING AGENT COMPRISING SAME” (WEYLCHEM PERFORMANCE PRODUCTS GMBH, priority 2020, published 2023).

Assays:
[1] = Reference granulation: stability of catalyst/PVOH mixture in water and on fluidised bed drying; type: physicochemical
Protocol: Similar to the process described above for granules 1-7, an aqueous solution of [Mn2(μ-O)3(Me3TACN)2](PF6)2·H2O in water and PVOH were mixed together with the other components to make the granule (corn starch and CaSO4). As the solubility of [Mn2(μ-O)3(Me3TACN)2](PF6)2·H2O in water is relatively low (1.08 wt-% in water at 20° C.—see WO2006/125517), a large amount of water needed to be added to obtain a mixture that has enough of the [Mn2(μ-O)3(Me3TACN)2](PF6)2·H2O catalyst to yield a granule comprising 2 wt-% of [Mn2(μ-O)3(Me3TACN)2](PF6)2·H2O (this would equate to 1.85 L of the aqueous solution of [Mn2(μ-O)3(Me3TACN)2](PF6)2·H2O following the same amounts of chemicals as described in the examples above).
Second observation was that the mixture of the [Mn2(μ-O)3(Me3TACN)2](PF6)2·H2O and PVOH in water was not stable.

[2] = BC-1 (tea stain on cotton) bleaching; conditions: pH 11.5, 1 g/L sodium percarbonate, 40° C., 30 min, Table 3
Protocol: BC-1 (tea stain on cotton) bleaching experiments were carried similarly as described in WO2014/202954. All bleaching experiments were done in duplication.
BC-1 (tea stain on cotton) bleaching was assessed at pH 11.5 in an aqueous solution containing 1 g/L nonionic formulation (Lutensol A07), 0, 1 and 2 μM [Mn2(μ-O)2(μ-CH3COO)(Me4DTNE)]Cl2), 1 g/L sodium percarbonate at 40° C. for 30 min (reference test).
Similarly, the bleaching activity of granule 9 was assessed using the same protocol, except for dissolving granule 9 in demineralised water yielding the same concentrations of catalyst as used in the reference test.

[3] = cited from earlier work

Compound: CN1CCN(C)CCN(C)CC1.CN1CCN(C)CCN(C)CC1.O=S(=O)([O-])[O-].[Mn+4].[Mn+4].[O-2].[O-2].[O-2] [MnTACNSO4, [Mn2(μ-O)3(Me3TACN)2]SO4]
- time the mixture of catalyst and PVOH in solution remained stable ([1]; room temperature): at least 4 days

Compound: CC(=O)[O-].CN1CCN(C)CCN(CCN2CCN(C)CCN(C)CC2)CC1.[Cl-].[Cl-].[Mn+3].[Mn+4].[O-2].[O-2] [[Mn2(μ-O)2(μ-CH3COO)(Me4DTNE)]Cl2]
- ΔR* BC-1 bleaching ([2]; 1.0 μM catalyst): 25.2 (0.1)
- ΔR* BC-1 bleaching ([2]; 2.0 μM catalyst): 26.3 (0.1)

Compound: CN1CCN(C)CCN(C)CC1.CN1CCN(C)CCN(C)CC1.F[P-](F)(F)(F)(F)F.F[P-](F)(F)(F)(F)F.O.[Mn+4].[Mn+4].[O-2].[O-2].[O-2] [[Mn2(μ-O)3(Me3TACN)2](PF6)2·H2O, [Mn2(μ-O)3(Me3-TACN)2](PF6)2·H2O]
- appearance after fluidised bed drying (catalyst decomposition) ([1]; granulation from dilute aqueous solution with PVOH, corn starch, CaSO4): dark brown granules
- stability of mixture of catalyst and PVOH in water ([1]; room temperature): not stable
- water solubility ([3]; at 20° C.): 10.8 g/L
- solubility in water ([3]; in water at 20° C., see WO2006/125517): 1.08 wt-%
